From ChEMBL document CHEMBL1152129, “Quantitative structure-activity relationship and complex network approach to monoamine oxidase A and B inhibitors” (J Med Chem, 2008) come the findings set out here.

Molecules are shown by their SMILES.

In the first data set the target is T1, Amine oxidase [flavin-containing] A (Homo sapiens, UniProt P21397).
T1 sequence (P21397 whole entry): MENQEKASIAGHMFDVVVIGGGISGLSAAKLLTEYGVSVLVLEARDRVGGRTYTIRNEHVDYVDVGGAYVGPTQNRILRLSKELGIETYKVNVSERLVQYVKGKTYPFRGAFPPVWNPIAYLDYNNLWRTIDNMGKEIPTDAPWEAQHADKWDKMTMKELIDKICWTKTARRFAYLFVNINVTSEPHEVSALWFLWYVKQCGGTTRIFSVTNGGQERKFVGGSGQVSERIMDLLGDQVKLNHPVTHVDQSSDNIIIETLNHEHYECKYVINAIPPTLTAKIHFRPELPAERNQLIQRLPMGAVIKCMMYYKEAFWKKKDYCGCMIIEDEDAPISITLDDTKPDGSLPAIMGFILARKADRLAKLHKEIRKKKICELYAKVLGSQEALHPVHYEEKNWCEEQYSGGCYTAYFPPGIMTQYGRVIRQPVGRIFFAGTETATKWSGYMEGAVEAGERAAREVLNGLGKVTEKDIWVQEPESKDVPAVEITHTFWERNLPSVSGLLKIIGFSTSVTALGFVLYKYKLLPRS
As to the kind of experiment: Inhibition of human recombinant MAOA by fluorimetric method. To be noted: human.
On to `CO[C@@]12[C@H](COC(N)=O)C3=C(C(=O)C(C)=C(N)C3=O)N1C[C@H]1[C@@H]2N1c1ccc(O)cc1`, for which the Activity result is reported as “Not Active”.

With `CC(c1cnc2nc(N)nc(N)c2n1)N(C)c1ccc(C(=O)N[C@@H](CCC(=O)O)C(=O)O)cc1` (some centres undefined) [ADENOPTERIN], the Activity entry was “Not Active”.

Turning to `CC(=O)Nc1ccc(/C=N/NC(N)=S)cc1` [AMITHIOZONE], the Activity entry is recorded as “Not Active”.

Turning to `CCOC(=O)[C@H](Cc1ccc(O)cc1)NC(=O)[C@H](Cc1ccc(N(CCCl)CCCl)cc1)NC(C)=O` [ASDOPHAN], the Activity entry is on record as “Not Active”.

With `CC(=O)OC1C=CC(=O)OC1C1OC1C` (centres undefined) [ASPERLIN], the Activity result was “Not Active”.

As to `O=C(O)c1ccc(NC2OC[C@@H](O)[C@H](O)[C@H]2O)cc1` (some centres undefined) [BENAXIBINE], the Activity result is listed as “Not Active”.

For `C=CC(=O)NCNC(=O)CCBr` [BROMACRYLIDE], the Activity result is “Not Active”.

`C[C@H]1CC2=CC(=O)CC[C@]2(C)[C@H]2CC[C@@]3(C)[C@@H](CC[C@]3(C)O)[C@H]12` [CALUSTERONE]: the Activity result is given as “Not Active”.

As to `Cc1nnc(SCC2=C(C(=O)O)N3C(=O)[C@@H](NC(=O)Cn4cnnn4)[C@H]3SC2)s1` [CEFAZOLIN], the Activity entry was “Not Active”.

For `C=CC1=C(C(=O)O)N2C(=O)[C@@H](NC(=O)/C(=N\OCC(=O)O)c3csc(N)n3)[C@H]2SC1` [CEFIXIME], the Activity entry is listed as “Not Active”.

With `COC1=C(C)C(=O)C2=C(C1=O)[C@@H](CO)N1[C@H]3[C@H]4[C@@H](C[C@H]([C@H]1C#N)N4C)[C@@H]1OCCN1[C@@H]23` [CYANOCYCLINE A], the Activity entry is recorded as “Not Active”.

Turning to `C[C@@H]1C[C@@H]([C@H](O)CC2CC(=O)NC(=O)C2)C(=O)[C@@H](C)C1` [CYCLOHEXIMIDE], the Activity result is on record as “Not Active”.

As for `COc1cccc2c1C(=O)c1c(O)c3c(c(O)c1C2=O)C[C@@](O)(C(=O)CO)C[C@@H]3O[C@H]1C[C@H](N)[C@H](O)[C@H](C)O1` [DOXORUBICIN], the Activity entry was “Not Active”.

Consider `O=NN(CCCl)C(=O)NCCO` [ELMUSTINE], for which the Activity entry is on record as “Not Active”.

As to `CCc1nc(N)nc(N)c1-c1ccc(Cl)c(Cl)c1` [ETOPRINE], the Activity result is reported as “Not Active”.

In the case of `CCOC(=O)/C=C1\SC(N2CCCCC2)C(=O)N1C` (centres undefined) [ETOZOLIN], the Activity entry was “Not Active”.

For the compound `O=C(NP(=O)(N1CC1)N1CC1)c1ccc(F)cc1` [FLUORBENZOTEF], the Activity result is on record as “Not Active”.

As for `Cc1ccc(S(=O)(=O)NC(=O)N[C@H]2[C@H]3CC[C@@](C)([C@H]2O)C3(C)C)cc1` [GLIBORNURIDE], the Activity entry is listed as “Not Active”.

As for `COc1ccc(Cl)cc1C(=O)NCCc1ccc(S(=O)(=O)NC(=O)NC2CCCCC2)cc1` [GLYBURIDE], the Activity entry was “Not Active”.

Take `NC(=O)NO` [HYDROXYUREA]: the Activity result is “Not Active”.

`CNCCc1ccc(OC(=O)C(C)C)c(OC(=O)C(C)C)c1` [IBOPAMINE]: the Activity entry was “Not Active”.

In the case of `CC(C)Cc1ccc(C(C)C(=O)O)cc1` (centres undefined) [IBUPROFEN], the Activity result is given as “Not Active”.

Regarding `CC(CCc1ccccc1)NCC(O)c1ccc(O)c(C(N)=O)c1` (centres undefined) [LABETALOL], the Activity result is reported as “Not Active”.

`OC[C@@H](O)[C@@H](O)[C@H](O)[C@H](O)CO` [MANNITOL]: the Activity entry is “Not Active”.

Consider `Cc1cc(Cl)ccc1OCC(=O)O` [METAXON], for which the Activity entry is “Not Active”.

Turning to `O[C@@H]([C@H](O)[C@H](O)CBr)[C@H](O)CBr` [MITOBRONITOL], the Activity result is “Not Active”.

As for `CC(/C=N/NC(=N)N)=N\NC(=N)N` [MITOGUAZONE], the Activity result was “Not Active”.

As to `COCCOC(=O)C1=C(C)NC(C)=C(C(=O)OC(C)C)C1c1cccc([N+](=O)[O-])c1` (centres undefined) [NIMODIPINE], the Activity entry is “Not Active”.

As to `CCC1(c2ccccc2)C(=O)NC(=O)NC1=O` [PHENOBARBITAL], the Activity entry is listed as “Not Active”.

On to `COc1cc(NC(C)CCCN)c2ncccc2c1` (centres undefined) [PRIMAQUINE], for which the Activity result is reported as “Not Active”.

Regarding `CCC1(c2ccccc2)C(=O)NCNC1=O` [PRIMIDONE], the Activity entry was “Not Active”.

For `CC1=C(/C=C/C(C)=C/C=C/C(C)=C/CO)C(C)(C)CCC1` [RETINOL], the Activity result is listed as “Not Active”.

As for `CCCCCCCCCCCCCCCC(=O)N(CCCCN(C)C)CCCCN(C)C` [SOLAPALMITINE], the Activity result was “Not Active”.

`Cc1noc(NS(=O)(=O)c2ccc(N)cc2)c1C` [SULFISOXAZOLE]: the Activity result is “Not Active”.

Regarding `OC[C@H]1O[C@@H](n2cnc3c(S)ncnc32)[C@H](O)[C@@H]1O` [THIOINOSINE], the Activity entry is on record as “Not Active”.

`N#CC(O[C@@H]1O[C@H](CO[C@@H]2O[C@H](CO)[C@@H](O)[C@H](O)[C@H]2O)[C@@H](O)[C@H](O)[C@H]1O)c1ccccc1` (some centres undefined) [VITAMIN B17]: the Activity result is listed as “Not Active”.

The target of the next data set is T1, Amine oxidase [flavin-containing] A. Briefly: Inhibition of human liver MAOA. Also: test concentration or dose not given here.
Conditions: not given; call rule not given here
With `Cn1cc(I)ccc1=O`, the Activity entry was “Not Active”.

Consider `C=CCC(C(=O)NC(N)=O)C(C)C` (centres undefined) [APRONAL], for which the Activity entry is reported as “Not Active”.

As for `O=C(O)CCCCSc1[nH]cnc2ncnc1-2` [BUTHIOPURINE], the Activity result is “Not Active”.

Take `COc1cc2c(cc1O)N=C[C@@H]1CC[C@H](O)N1C2=O` [NEOTHRAMYCIN A]: the Activity entry was “Not Active”.

On to `O=c1[nH]nc(-c2ccncc2)o1` [NEOVADRINE], for which the Activity result was “Not Active”.

Consider `CN(C)[C@@H]1C(O)=C(C(N)=O)C(=O)[C@@]2(O)C(O)=C3C(=O)c4c(O)cccc4[C@@](C)(O)[C@H]3[C@H](O)[C@@H]12` [OXYTETRACYCLINE], for which the Activity result is given as “Not Active”.

As for `CC[C@H](C)[C@@H]1NC(=O)[C@H](Cc2ccc(O)cc2)NC(=O)[C@@H](N)CSSC[C@@H](C(=O)N2CCC[C@H]2C(=O)N[C@@H](CC(C)C)C(=O)NCC(N)=O)NC(=O)[C@H](CC(N)=O)NC(=O)[C@H](CCC(N)=O)NC1=O` [OXYTOCIN], the Activity entry was “Not Active”.

Turning to `CCOc1ccc(NC(C)=O)cc1.Cl` [PHENACETIN CHLORIDE], the Activity result is reported as “Not Active”.

On to `CN1C(CSCC(F)(F)F)Nc2cc(Cl)c(S(N)(=O)=O)cc2S1(=O)=O` (centres undefined) [POLYTHIAZIDE], for which the Activity entry is on record as “Not Active”.

Take `Nc1nc(=O)c2nc(CNc3ccc(C(=O)NC(CCC(=O)NC(CCC(=O)NC(CCC(=O)O)C(=O)O)C(=O)O)C(=O)O)cc3)cnc2[nH]1` (centres undefined) [PTEROPTERIN]: the Activity result is “Not Active”.

For the compound `CCCCC1=C2N=C(N)N[C@H]3CC[C@@H](C[C@@H]1C)[C@@H]23` [PTILOCAULINE], the Activity result is given as “Not Active”.

Consider `Nc1ccc(S(=O)(=O)Nc2ncccn2)cc1` [SULFADIAZINE], for which the Activity entry is given as “Not Active”.

Consider `[H]/N=C(/N)NS(=O)(=O)c1ccc(N)cc1` [SULFAGUANIDINE], for which the Activity result is given as “Not Active”.
